Measurements: ChEMBL document CHEMBL4665736, “Synthesis and structural insights into the binding mode of the albomycin δ1 core and its analogues in complex with their target aminoacyl-tRNA synthetase” (Bioorg Med Chem, 2020)
One block for each molecule: values may come before it. Activity calls are given as the source filed them. No cut-off for these calls is given here.

Key:
[1] = target: Serine--tRNA ligase (Escherichia coli (strain K12)) (UniProt P0A8L1); test: (§1) Inhibition of recombinant Escherichia coli BL21(DE3) seryl-tRNA synthetase expressed in Escherichia coli Rosetta 2 (DE3) assessed as reduction in tRNA aminoacylation at 0.1 uM preincubated for 10 mins in presence of [14C]-serine and tRNA and iPPase followed by ATP addition by scintillation counting method relative to control
[2] = target: Serine--tRNA ligase (Escherichia coli (strain K12)) (UniProt P0A8L1); test: as §1, with “1” for “0.1”
[3] = tested on: Escherichia coli BL21(DE3); test: (§2) Inhibition of recombinant Escherichia coli BL21(DE3) isoleucyl-tRNA synthetase expressed in Escherichia coli Rosetta 2 (DE3) assessed as reduction in tRNA aminoacylation at 10 uM preincubated for 10 mins in presence of [14C]-isoleucin and tRNA and iPPase followed by ATP addition and measured after 6 mins by scintillation counting method; details: time 16.0 min
[4] = target: Serine--tRNA ligase (Escherichia coli (strain K12)) (UniProt P0A8L1); test: as §1, with “10” for “0.1”
[5] = tested on: Escherichia coli BL21(DE3); test: as §1, with “aspartyl-tRNA” for “seryl-tRNA”, “[14C]-aspartate” for “[14C]-serine”
[6] = tested on: Escherichia coli BL21(DE3); test: as §2, with “aspartyl-tRNA” for “isoleucyl-tRNA”, “nM” for “uM”, “[14C]-aspartate” for “[14C]-isoleucin”, “addition” for “addition and measured after 6 mins”
[7] = (§3) Inhibition of recombinant Escherichia coli BL21(DE3) aspartyl-tRNA synthetase expressed in Escherichia coli Rosetta 2 (DE3) assessed as reduction in tRNA aminoacylation preincubated for 10 mins in presence of [14C]-aspartate and tRNA and iPPase followed by ATP addition by scintillation counting method
[8] = tested on: Escherichia coli BL21(DE3); test: as §3, with “aminoacylation at 1 uM” for “aminoacylation”

Sequence of Serine--tRNA ligase (Escherichia coli (strain K12)) (P0A8L1 whole entry, looked up): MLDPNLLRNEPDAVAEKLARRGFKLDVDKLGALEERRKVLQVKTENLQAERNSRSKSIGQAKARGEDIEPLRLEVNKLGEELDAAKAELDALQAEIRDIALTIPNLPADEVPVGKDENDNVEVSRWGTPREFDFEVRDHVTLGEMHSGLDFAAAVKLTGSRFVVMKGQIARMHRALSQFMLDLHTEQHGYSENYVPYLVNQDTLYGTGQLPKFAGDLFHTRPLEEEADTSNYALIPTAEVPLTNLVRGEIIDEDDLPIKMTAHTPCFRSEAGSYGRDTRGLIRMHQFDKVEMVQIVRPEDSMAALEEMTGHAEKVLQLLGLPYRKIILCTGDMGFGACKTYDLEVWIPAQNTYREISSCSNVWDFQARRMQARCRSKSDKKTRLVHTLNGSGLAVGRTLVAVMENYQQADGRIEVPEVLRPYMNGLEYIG

inhibition [4]: 25%
SMILES: Cn1c(=O)ccn([C@@H]2S[C@H]([C@H](O)[C@H](NC(=O)[C@@H](N)CO)C(=O)O)[C@H](O)[C@H]2O)c1=O

inhibition [5]: 60%
inhibition [6]: Active
IC50 [7]: 0.031 µM
SMILES: Cn1c(=O)ccn([C@@H]2S[C@H]([C@@H](O)[C@@H](NC(=O)[C@@H](N)CC(=O)O)C(=O)O)[C@H](O)[C@H]2O)c1=O

inhibition [8]: inactive
SMILES: Cn1c(=O)ccn([C@@H]2S[C@H]([C@H](O)[C@H](NC(=O)[C@@H](N)CC(=O)O)C(=O)O)[C@H](O)[C@H]2O)c1=O

The remaining lines, values behind:

SMILES: Cn1c(=O)ccn([C@@H]2S[C@H]([C@@H](O)[C@@H](NC(=O)[C@@H](N)CO)C(=O)O)[C@H](O)[C@H]2O)c1=O
inhibition [1]: 50%
inhibition [2]: 80%

SMILES: CC[C@H](C)[C@H](N)C(=O)NC(C(=O)O)C(O)[C@H]1S[C@@H](n2ccc(=O)n(C)c2=O)[C@H](O)[C@H]1O (mixture of isomers)
inhibition [3]: inactive
